The values below come from US12570675B2, “Boronic acid compounds” (LG CHEM, LTD., priority 2020, dated 2026).

Each structure is given as a SMILES string.

The target in assay [1] is Proteasome caspase-like activity (S26 protein from RPMI8226 cells) (Homo sapiens (Human), UniProt P28072). Put plainly: Proteasome caspase-like activity inhibition (Z-Leu-Leu-Glu-AMC fluorogenic substrate, RPMI8226 cell extract). It is filed as biochemical. To be noted: S26 protein from RPMI8226 cell extract 2 ug/well, substrate 20 uM, 37° C., 90 minutes. How it is done:
The abilities to inhibit the proteasome activity of the compounds described in the Examples of the present invention and boronic acid drugs were evaluated as follows.
RPMI8226 cells, which is a multiple myeloma cell line, were cultured and then separated by a centrifuge, and washed twice with phosphate buffered saline (PBS). 20 mM of a tris-HCl (pH 8.0) buffer solution was added to the washed cells, and the cells were disrupted by a homogenizer and centrifuged to obtain S26 protein from the supernatant. Suc-Leu-Leu-Val-Tyr-AMC, for a fluorogenic substrate for the chymotrypsin-like activity of the proteasome, and Z-Leu-Leu-Glu-AMC, for a fluorogenic substrate for the caspase-like activity, were purchased from Calbiochem, EMD Millipore and used. Into each well of a 96-well plate (opaque, black round bottom), 20 ul of the S26 protein (final RPMI8226 cell extract concentration: 2 ug/well), 10 ul of S26 proteasome inhibitor serially diluted from 10 uM (final DMSO concentration: 0.5%), and 20 ul of the fluorogenic substrate for the proteasome chymotrypsin-like or caspase-like activity (final concentration: 20 uM) were added and mixed and allowed to react in a 37° C. incubator for 90 minutes. The fluorescence of the fluorogenic substrate was measured by FlexStation II Fluorometer (Molecular Devices). The fluorescence inhibited by the compound diluted at each concentration was measured as the relative percentage value for the amount obtained from the treatment only with the S26 protein and the fluorogenic substrate. IC50 (inhibitory concentration 50) was expressed in terms of a concentration that inhibits 50% of the maximum fluorescence induced by the fluorogenic substrate.

Assay [2] has as its target Proteasome chymotrypsin-like activity (S26 protein from RPMI8226 cells) (Homo sapiens, UniProt P28074). It is filed as biochemical. As to conditions: S26 protein from RPMI8226 cell extract 2 ug/well, substrate 20 uM, 37° C., 90 minutes; read-out: Proteasome chymotrypsin-like activity inhibition IC50. In short, it runs like this: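 Inhibition is measured in crude proteasome (S26) from RPMI8226 cells at 2 ug/well, using 20 uM substrate specific to each activity: Suc-LLVY-AMC for chymotrypsin-like, Z-LLE-AMC for caspase-like. Compounds span a dilution series from 10 uM.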

Chain of Proteasome chymotrypsin-like activity (S26 protein from RPMI8226 cells) (P28074 60-263 limits assumed): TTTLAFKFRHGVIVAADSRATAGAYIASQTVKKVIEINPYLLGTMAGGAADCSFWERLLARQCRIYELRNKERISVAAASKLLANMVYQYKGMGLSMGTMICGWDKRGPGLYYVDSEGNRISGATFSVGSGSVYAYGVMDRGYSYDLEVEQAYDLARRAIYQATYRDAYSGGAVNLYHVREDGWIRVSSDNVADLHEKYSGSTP
Chain of Proteasome caspase-like activity (S26 protein from RPMI8226 cells) (P28072 whole entry): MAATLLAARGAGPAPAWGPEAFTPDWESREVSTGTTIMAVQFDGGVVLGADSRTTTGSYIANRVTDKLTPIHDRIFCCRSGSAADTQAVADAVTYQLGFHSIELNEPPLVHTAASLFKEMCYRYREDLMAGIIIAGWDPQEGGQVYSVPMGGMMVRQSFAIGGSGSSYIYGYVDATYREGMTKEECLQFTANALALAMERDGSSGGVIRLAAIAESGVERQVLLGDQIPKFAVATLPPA

The term IC50 denotes the concentration that inhibits the measured activity by half. As to `O=C(NCC1=NOC(Cc2ccccc2)(C(=O)N[C@@H](Cc2ccccc2)B(O)O)C1)c1ccccc1` (stereo partly drawn) [Example 292, ((1R)-1-(3-(benzamidomethyl)-5-benzyl-4,5-dihydroisoxazol-5-carboxamido)-2-phenylethyl)boronic acid], the IC50 in assay [1] was greater than 1000 nM; in assay [2] it was less than 10 nM.
`Cc1cc(C(=O)NCC2=NOC(Cc3ccccc3)(C(=O)N[C@@H](CC(C)C)B(O)O)C2)no1` (stereo partly drawn) [Example 107, ((1R)-1-(5-benzyl-3-((5-methylisoxazol-3-carboxamido)methyl)-4,5-dihydroisoxazol-5-carboxamido)-3-methylbutyl)boronic acid]: the IC50 in assay [1] was greater than 500 nM; in assay [2] it was less than 10 nM.
With `CC(C)C[C@H](NC(=O)C1(Cc2ccccc2)CC([C@@H](NC(=O)c2nccc3ccccc23)C(C)C)=NO1)B(O)O` (stereo partly drawn) [Example 148, ((1R)-1-(5-benzyl-3-((S)-1-(isoquinolin-1-carboxamido)-2-methylpropyl)-4,5-dihydroisoxazol-5-carboxamido)-3-methylbutyl)boronic acid], the IC50 in assay [1] is greater than 1000 nM; in assay [2] it was less than 25 nM.
In the case of `Cc1cnc(COCC2=NOC(Cc3ccccc3)(C(=O)N[C@@H](CC(C)C)B(O)O)C2)cn1` (stereo partly drawn) [Example 48, ((1R)-1-(5-benzyl-3-(((5-methylpyrazin-2-yl)methoxy)methyl)-4,5-dihydroisoxazol-5-carboxamido)-3-methylbutyl)boronic acid], the results for the IC50 in assay [1] and in assay [2] were greater than 250 nM and less than 25 nM, respectively.
Regarding `CC(C)C[C@H](NC(=O)C1CC([C@H](CC(C)C)NC(=O)c2cc(Cl)ccc2Cl)=NO1)B(O)O` (stereo partly drawn) [Example 74, ((1R)-1-(3-((S)-1-(2,5-dichlorobenzamido)-3-methylbutyl)-4,5-dihydroisoxazol-5-carboxamido)-3-methylbutyl)boronic acid], the values for the IC50 in assay [1] and in assay [2] were greater than 500 nM and less than 25 nM, respectively.
For `Cc1nc(C)c(COCC2=NOC(Cc3ccccc3)(C(=O)N[C@@H](CC(C)C)B(O)O)C2)s1` (stereo partly drawn) [Example 51, ((1R)-1-(5-benzyl-3-(((2,4-dimethylthiazol-5-yl)methoxy)methyl)-4,5-dihydroisoxazol-5-carboxamido)-3-methylbutyl)boronic acid], in that order: greater than 500 nM and less than 10 nM.
Taken in the same sequence, the figures for `CC(C)C[C@H](NC(=O)C1(Cc2ccccc2)CC(CNC(=O)c2cccc3ccccc23)=NO1)B(O)O` (stereo partly drawn) [Example 92, ((1R)-1-(3-((1-naphthamido)methyl)-5-benzyl-4,5-dihydroisoxazol-5-carboxamido)-3-methylbutyl)boronic acid] were greater than 500 nM and less than 10 nM.
As to `CC(C)C[C@H](NC(=O)C1(Cc2ccccc2)CC(CNC(=O)c2cccc(Cl)n2)=NO1)B(O)O` (stereo partly drawn) [Example 308], the IC50 in assay [1] is greater than 500 nM; in assay [2], less than 10 nM.
With `CC(C)C[C@H](NC(=O)C1(Cc2ccccc2)CC(CNC(=O)c2ccc(C(F)(F)F)nc2)=NO1)B(O)O` (stereo partly drawn) [Example 179, ((1R)-1-(5-benzyl-3-((6-(trifluoromethyl)nicotinamido)methyl)-4,5-dihydroisoxazol-5-carboxamido)-3-methylbutyl)boronic acid], the IC50 is greater than 500 nM in assay [1] and less than 10 nM in assay [2].
For `COC[C@H](NC(=O)c1nccc2ccccc12)C1=NOC(Cc2ccccc2)(C(=O)N[C@@H](CC(C)C)B(O)O)C1` (stereo partly drawn) [Example 153, ((1R)-1-(5-benzyl-3-((R)-1-(isoquinolin-1-carboxamido)-2-methoxyethyl)-4,5-dihydroisoxazol-5-carboxamido)-3-methylbutyl)boronic acid], in that order: greater than 500 nM and less than 10 nM.
On to `CC(C)C[C@H](NC(=O)C1(Cc2ccccc2)CC(COCc2ccccc2)=NO1)B(O)O` (stereo partly drawn) [Example 256], for which the IC50 in assay [1] was greater than 1000 nM; in assay [2], less than 10 nM.
As for `CC(C)C[C@H](NC(=O)C1(Cc2ccccc2)CC(CNC(=O)c2ccnc3c2ccn3C(C)C)=NO1)B(O)O` (stereo partly drawn) [Example 211, ((1R)-1-(5-benzyl-3-((1-isopropyl-1H-pyrrolo[2,3-b]pyridin-4-carboxamido)methyl)-4,5-dihydroisoxazol-5-carboxamido)-3-methylbutyl)boronic acid], the IC50 in assay [1] was greater than 500 nM; in assay [2], less than 10 nM.
As for `CC(C)C[C@H](NC(=O)C1CC([C@H](CC(C)C)NC(=O)c2nccc3ccccc23)=NO1)B(O)O` (stereo partly drawn) [Example 73, ((1R)-1-(3-((S)-1-(isoquinolin-1-carboxamido)-3-methylbutyl)-4,5-dihydroisoxazol-5-carboxamido)-3-methylbutyl)boronic acid], the IC50 in assay [1] was greater than 100 nM; in assay [2], less than 25 nM.
Taken in the same sequence, the figures for `CC(C)C[C@H](NC(=O)C1(COc2ccccc2)CC(CNC(=O)c2nccc3ccccc23)=NO1)B(O)O` (stereo partly drawn) [Example 126, ((1R)-1-(3-((isoquinolin-1-carboxamido)methyl)-5-(phenoxymethyl)-4,5-dihydroisoxazol-5-carboxamido)-3-methylbutyl)boronic acid] were greater than 500 nM and less than 10 nM.
`CC(C)C[C@H](NC(=O)C1(Cc2ccccc2)CC(COCc2nccc3ccccc23)=NO1)B(O)O` (stereo partly drawn) [Example 49, ((1R)-1-(5-benzyl-3-((isoquinolin-1-ylmethoxy)methyl)-4,5-dihydroisoxazol-5-carboxamido)-3-methylbutyl)boronic acid]: the figures for the IC50 in assay [1] and in assay [2] were greater than 1000 nM and less than 10 nM, respectively.
As to `CC(C)C[C@H](NC(=O)C1(Cc2ccccc2)CC(CNS(=O)(=O)c2cc(Cl)ccc2Cl)=NO1)B(O)O` (stereo partly drawn) [Example 143, ((1R)-1-(5-benzyl-3-(((2,5-dichlorophenyl)sulfonamido)methyl)-4,5-dihydroisoxazol-5-carboxamido)-3-methylbutyl)boronic acid], the IC50 is greater than 500 nM in assay [1] and less than 10 nM in assay [2].
Take `Cc1nc(C(=O)NCC2=NOC(Cc3ccccc3)(C(=O)N[C@@H](CC(C)C)B(O)O)C2)c(Cl)s1` (stereo partly drawn) [Example 119, ((1R)-1-(5-benzyl-3-((5-chloro-2-methylthiazol-4-carboxamido)methyl)-4,5-dihydroisoxazol-5-carboxamido)-3-methylbutyl)boronic acid]: the figures for the IC50 in assay [1] and in assay [2] were greater than 1000 nM and less than 10 nM, respectively.
For the molecule `CC(C)C[C@H](NC(=O)C1(Cc2ccccc2)CC([C@H](CC(C)C)NC(=O)c2nccc3ccccc23)=NO1)B(O)O` (stereo partly drawn) [Example 152, ((1R)-1-(5-benzyl-3-((S)-1-(isoquinolin-1-carboxamido)-3-methylbutyl)-4,5-dihydroisoxazol-5-carboxamido)-3-methylbutyl)boronic acid], the figures for the IC50 in assay [1] and in assay [2] were greater than 1000 nM and less than 10 nM, respectively.
As to `Cc1cccc(COCC2=NOC(Cc3ccccc3)(C(=O)N[C@@H](CC(C)C)B(O)O)C2)n1` (stereo partly drawn) [Example 47, ((1R)-1-(5-benzyl-3-(((6-methylpyridin-2-yl)methoxy)methyl)-4,5-dihydroisoxazol-5-carboxamido)-3-methylbutyl)boronic acid], the IC50 was greater than 250 nM in assay [1] and less than 10 nM in assay [2].
In the case of `Cc1nc(C(=O)NCC2=NOC(Cc3ccccc3)(C(=O)N[C@@H](CC(C)C)B(O)O)C2)cs1` (stereo partly drawn) [Example 117, ((1R)-1-(5-benzyl-3-((2-methylthiazol-4-carboxamido)methyl)-4,5-dihydroisoxazol-5-carboxamido)-3-methylbutyl)boronic acid], the IC50 in assay [1] is greater than 1000 nM; in assay [2], less than 10 nM.
Regarding `CC(C)C[C@H](NC(=O)CNC(=O)c1cc(Cl)ccc1Cl)B(O)O` [ixazomib], 7 nM corresponded to half-maximal inhibition in assay [1] (IC50).
As for `CC(C)C[C@H](NC(=O)C12CCCC1C(CNC(=O)c1nccc3ccccc13)=NO2)B(O)O` (stereo partly drawn) [Example 198, ((1R)-1-(3-((isoquinolin-1-carboxamido)methyl)-3a,5,6,6a-tetrahydro-4H-cyclopenta[d]isoxazol-6a-carboxamido)-3-methylbutyl)boronic acid], in assay [2], the IC50 was less than 100 nM.
Same read-out and setting: the value for `CC(C)C[C@H](NC(=O)C1(Cc2ccccc2)CC(COCc2cccn3ccnc23)=NO1)B(O)O` (stereo partly drawn) [Example 266] was less than 10 nM; that for `CC(C)C[C@H](NC(=O)C1CC(c2cccc(Oc3ccccn3)c2)=NO1)B(O)O` (stereo partly drawn) [Example 41, ((1R)-3-methyl-1-(3-(3-(pyridin-2-yloxy)phenyl)-4,5-dihydroisoxazol-5-carboxamido)butyl)boronic acid] was less than 250 nM.
`COc1cccc(CC2(C(=O)N[C@@H](CC(C)C)B(O)O)CC(CNC(=O)c3c(Cl)c(C)nn3C(C)C)=NO2)c1` (stereo partly drawn) [Example 233, ((1R)-1-(3-((4-chloro-1-isopropyl-3-methyl-1H-pyrazol-5-carboxamido)methyl)-5-(3-methoxybenzyl)-4,5-dihydroisoxazol-5-carboxamido)-3-methylbutyl)boronic acid]: in assay [2], the IC50 is less than 10 nM.
